From patent EP0655460B1, “Pharmacotherapeutical use of glutathione derivatives” (Ohlenschläger, Gerhard, Dr. med., priority 1987, dated 1989)
Where two headings read alike, the source gives them in different places.

How the values were obtained:
[1] = system: Glukose-6-Phosphat-Dehydrogenase; conditions: same conditions as 1.1 (0,5 mg, 37°C, 30 Minuten); n = 22, mean ± SD; Leerwert 148 ± 22
Description: (§1) Von 20 Patienten mit unterschiedlichen Erkrankungen wurden jeweils 10 ml menschlichen Venenblutes entnommen und dessen Gerinnungsfähigkeit durch Zusatz von Heparin aufgehoben. Als Parameter für die optimale Erythrozytenfunktion wurde vor und nach der Inkubation mit 0,5 mg reduziertem Glutathion bei 37°C während eines Zeitraumes von 30 Minuten der Gehalt an intraerythrozytärem reduziertem Glutathion bestimmt.
(§2) 1.2) In-vitro-Versuch an Zellensystemen menschlicher Erythrozyten:
(§3) Unter denselben Bedingungen wie bei vorstehend beschriebenem Versuch wurden die Enzyme Glukose-6-Phosphat-Dehydrogenase und Glutathion-Reduktase aus Erythrozyten von 22 Patienten in vitro untersucht.

Glutathion-Reduktase = Glutathion-Reduktase (Homo sapiens, UniProt P00390); conditions: same conditions as 1.1 (0,5 mg, 37°C, 30 Minuten); n = 22, mean ± SD; Leerwert 9,5 ± 0,8
Chain of Glutathion-Reduktase (P00390 44-522): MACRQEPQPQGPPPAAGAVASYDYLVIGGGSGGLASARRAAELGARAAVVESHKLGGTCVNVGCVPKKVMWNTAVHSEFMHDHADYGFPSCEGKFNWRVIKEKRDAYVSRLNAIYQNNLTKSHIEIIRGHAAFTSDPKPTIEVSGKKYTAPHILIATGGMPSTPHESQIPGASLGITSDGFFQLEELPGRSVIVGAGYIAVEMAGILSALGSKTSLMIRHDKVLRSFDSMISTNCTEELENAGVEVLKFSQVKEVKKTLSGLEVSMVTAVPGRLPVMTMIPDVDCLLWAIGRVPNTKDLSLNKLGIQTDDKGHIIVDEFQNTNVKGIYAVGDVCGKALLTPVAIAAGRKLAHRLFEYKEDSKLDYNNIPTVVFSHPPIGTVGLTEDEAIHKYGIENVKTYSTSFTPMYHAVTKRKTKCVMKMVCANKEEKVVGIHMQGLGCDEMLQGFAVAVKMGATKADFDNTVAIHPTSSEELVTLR
Description: as §1, §2, §3

Redoxstatus des Blutes [2] = conditions: Kaninchen, Ohrvenenblut, 10 mg/kg intravenös, 5 - 10 Minuten after application, after load, n = 30, mean ± SD
Description: Bei 5 verschiedenen Kaninchen wurden in 30 Versuchen im venösen Blut folgende Parameter nach der Methode und mit dem gerät VINCENT gemessen: • Ohm'scher Widerstand: r • Redoxpotential EH bzw. Elektronenpotential: rH2 • pH-Wert: pH.
Die Werte wurden im Ohrvenenblut nach definierter Sauerstoffmangel-Belastung gemessen.
Danach wurde den Tieren reduziertes Glutathion in einer Dosis von 10 mg/kg Körpergewicht intravenös verabreicht.
5 - 10 Minuten nach der Applikation von reduziertem Glutathion wurden folgende Werte ermittelt:
Randbedingungen: Temperatur 20°C, Luftdruck 767 mm Hg.

Redoxstatus des Blutes [3] = conditions: human venous blood, 600 mg langsam intravenös, 10 Minuten after application, after load, n = 50, mean ± SD
Description: 2.2) Selbstversuch am Menschen zur Verbesserung und/oder zur Normalisierung des Redorstatus des Blutes:
Im menschlichen Venenblut wurden nach definierter Sauerstoff-Mangel-Belastung die gleichen Parameter bestimmt wie im vorstehend gegchilderten Versuch. Insgesamt wurden 50 Versuche an verschiedenen Tagen durchgeführt.
Danach wurde-reduziertes Glutathion in einer Dosis von 600 mg langsam intravenös verabreicht.
Randbedingungen: Temperatur 20°C, Luftdruck 758 - 770 mm Hg.

[4] = system: malignen Melanoms vom Menschen; conditions: 4 mice, 10^6 melanoma cells, 250 mg three times weekly
Description: 2.3) Versuch an 8 gesunden Graumäusen nach Transplantation eines malignen Melanoms vom Menschen.
In Fig. 1 ist das Wachstum des Tumors in Abhängigkeit von der Zeit dargestellt.

[5] = system: malignen Melanoms vom Menschen; conditions: 300 mg three times weekly
Description: 2.4) Versuch an 40 gesunden Graumäusen nach Transplantation eines malignen Melanoms vom Menschen.
40 gesunden Graumäusen wurden je 10^6 maligne Melanomzellen überimpft.
30 Tiere wurden vom Beginn der Versuchsreihe an drei mal wöchentlich mit je 300 mg reduziertem Glutathion behandelt.

[6] = Toxicity of the therapeutic dosage in small animals; type: in vivo; conditions: small animals such as Graumäusen, Wistar-Ratten und Kaninchen; therapeutic dosage (2 - 5 mg/kg for man)
Description: Die therapeutische Dosierung, die sich im Tierversuch an Kleintieren wie Graumäusen, Wistar-Ratten und Kaninchen als untoxisch erwiesen hat, liegt für den Menschen in einem Bereich von 2 - 5 mg/kg Körpergewicht für eine Einzeldosis bei langsamer intravenöser Injektion, wobei das Injektionsvolumen 5 ml beträgt mit einem Gehalt an reduziertem Glutathion von 150 mg.

[7] = cited from earlier work
[8] = cited from earlier work; remark: listed apart in the source
[9] = cited from earlier work; remark: listed apart in the source
[10] = 30 treated mice, 10^6 melanoma cells

## N[C@@H](CCC(=O)N[C@@H](CS)C(=O)NCC(=O)O)C(=O)O [reduziertes Glutathion, gamma-Glutamyl-cysteinyl-glycin]
[1]
  Glukose-6-Phosphat-Dehydrogenase, Werte nach Inkubation: 179 ± 16 mU/ 10^9 Erys.
Glutathion-Reduktase
  Glutathion-Reduktase, Werte nach Inkubation: 11,3 ± 1,2 U/ 10^11 Erys.
Redoxstatus des Blutes [2]; without: 7,38 ± 0,21
  pH-Wert: pH = 7,15 ± 0,16
Redoxstatus des Blutes [2]; without: 199 ± 12
  Ohm'scher Widerstand r: r = 202 ± 14 Ohm/cm^3
Redoxstatus des Blutes [3]; without: 7,41 ± 0,18
  pH-Wert: pH = 7,23 ± 0,11
Redoxstatus des Blutes [3]; without: 197 ± 14,5
  Ohm'scher Widerstand r: r = 204 ± 12,3 Ohm/cm^3
[4]; controls died within 8 - 14 Tagen
  Überleben: überlebten bis zur siebten Woche
[4]; versus untreated controls
  Tumorwachstum: deutlich langsameres Tumorwachstum
[5]; [10]
  weitere gestorbene Tiere innerhalb 20 Tagen: fünf
  weitere gestorbene Tiere innerhalb 30 Tagen: sieben
[5]; 30 treated mice, 10^6 melanoma cells, controls died within 8 - 12 Tagen
  gestorbene Tiere innerhalb 15 Tagen: drei
[5]; of 30 treated mice
  Anteil überlebender behandelter Tiere, 30 Tage Beobachtungszeitraum: 50%
  überlebende Tiere, 30 Tage Beobachtungszeitraum: 15 Tiere
[6]
  Toxizität der therapeutischen Dosierung im Tierversuch: untoxisch
[7]; Wasser
  Löslichkeit in Wasser: leicht löslich
[7]; physiologischer Kochsalzlösung
  Löslichkeit in physiologischer Kochsalzlösung: leicht löslich
[7]; Äthanol
  Löslichkeit in Äthanol: löslich
[8]; COOH(1)
  pK-Wert COOH(1): 3,53
[8]; COOH(2)
  pK-Wert COOH(2): 2,12
[8]; NH3 ^+
  pK-Wert NH3 ^+: 8,66
[8]; SH
  pK-Wert SH: 9,66
[9]; human tissue: Augenlinse
  biologische Halbwertszeit in der Augenlinse: ca. 30 Std.
[9]; human tissue: Erythrozyten
  biologische Halbwertszeit im Erythrozyten: ca. 100 Std.
[9]; human tissue: Gehirn
  biologische Halbwertszeit im Gehirn: ca. 70 Std.
[9]; human tissue: Leber
  biologische Halbwertszeit in der Leber: ca. 4 Std.
